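Test compounds were applied to cells in 96-well plates for 48 hours at 5 doses. GI50 = concentration required for 50% inhibition of growth. At the TGI there is no net growth.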
Experiments:
Experiment in all cases: inhibition of tumour cell growth, NCI panel, 48 h; in the data active = GI50 below about 0.43 µM; inactive = the rest
SK-MEL-28 melanoma = tested on: SK-MEL-28 melanoma
TK-10 renal = tested on: TK-10 renal
SF-268 CNS = tested on: SF-268 CNS
NCI-H460 lung = tested on: NCI-H460 lung
SK-OV-3 ovarian = tested on: SK-OV-3 ovarian
KM12 colon = tested on: KM12 colon
HCT-116 colon = tested on: HCT-116 colon
MDA-MB-231 breast = tested on: MDA-MB-231 breast
CAKI-1 renal = tested on: CAKI-1 renal
PC-3 prostate = tested on: PC-3 prostate

Cc1nc(C(N)=O)c(N)n1CCN1CCN(C(=O)CCCCCCCCCCNC2N=CNc3nc[nH]c32)CC1 (centres undefined)
> 100 µM: TGI (TK-10 renal) | TGI (SF-268 CNS) | TGI (NCI-H460 lung) | TGI (SK-OV-3 ovarian) | TGI (KM12 colon) | TGI (HCT-116 colon)
79.1 µM: TGI (SK-MEL-28 melanoma)

CN1CCN(C(=S)N(C)C(=O)c2ccco2)CC1
> 100 µM: TGI (MDA-MB-231 breast) | TGI (TK-10 renal) | TGI (NCI-H460 lung) | TGI (KM12 colon)

O=C(COc1ccccc1Cl)N1N=C(c2ccc(Cl)cc2)CC1(O)c1ccccc1 (centres undefined)
> 100 µM: TGI (CAKI-1 renal) | TGI (SK-MEL-28 melanoma) | TGI (TK-10 renal) | TGI (SF-268 CNS) | TGI (NCI-H460 lung) | TGI (SK-OV-3 ovarian) | TGI (KM12 colon) | TGI (HCT-116 colon)

O=c1cc(-c2cccs2)[nH]c2cc3c(cc12)OCO3
> 39.1 µM: TGI (NCI-H460 lung)
> 100 µM: TGI (SK-MEL-28 melanoma) | TGI (TK-10 renal) | TGI (SF-268 CNS) | TGI (KM12 colon) | TGI (HCT-116 colon)
8.14 µM: TGI (SK-OV-3 ovarian)

CN(C)CCNC(=O)Cn1ccc(=O)c2cc([N+](=O)[O-])ccc21
> 100 µM: TGI (CAKI-1 renal) | TGI (PC-3 prostate) | TGI (SK-MEL-28 melanoma) | TGI (TK-10 renal) | TGI (SF-268 CNS) | TGI (NCI-H460 lung) | TGI (SK-OV-3 ovarian) | TGI (KM12 colon) | TGI (HCT-116 colon)

COC(=O)c1sc(C(=O)OC)c2c1CS(=O)C2
> 100 µM: TGI (CAKI-1 renal) | TGI (SK-MEL-28 melanoma) | TGI (TK-10 renal) | TGI (SF-268 CNS) | TGI (SK-OV-3 ovarian) | TGI (KM12 colon) | TGI (HCT-116 colon)

O=C1C[C@H]2CCCN2[C@@H](c2ccccc2)C1
> 100 µM: TGI (CAKI-1 renal) | TGI (SK-MEL-28 melanoma) | TGI (TK-10 renal) | TGI (SF-268 CNS) | TGI (NCI-H460 lung) | TGI (SK-OV-3 ovarian) | TGI (KM12 colon) | TGI (HCT-116 colon)

CCOC(=O)Cc1nc2ccc3c(c2[nH]c1=O)C(=O)c1ccccc1C3=O
> 100 µM: TGI (CAKI-1 renal) | TGI (SK-MEL-28 melanoma) | TGI (TK-10 renal) | TGI (SF-268 CNS) | TGI (NCI-H460 lung) | TGI (SK-OV-3 ovarian) | TGI (KM12 colon) | TGI (HCT-116 colon)

CNC(=S)Nc1ccc(OC)c2ccccc12
> 10 µM: TGI (CAKI-1 renal) | TGI (PC-3 prostate) | TGI (MDA-MB-231 breast) | TGI (SK-MEL-28 melanoma) | TGI (TK-10 renal) | TGI (SF-268 CNS) | TGI (SK-OV-3 ovarian) | TGI (KM12 colon) | TGI (HCT-116 colon)

CCc1cccc(C)c1NS(=O)(=O)c1ccccc1
> 100 µM: TGI (CAKI-1 renal) | TGI (SK-MEL-28 melanoma) | TGI (TK-10 renal) | TGI (NCI-H460 lung) | TGI (SK-OV-3 ovarian) | TGI (KM12 colon) | TGI (HCT-116 colon)

O=C(O)CCNS(=O)(=O)c1ccc(NC(=O)c2ccccc2)cc1
> 100 µM: TGI (CAKI-1 renal) | TGI (SK-MEL-28 melanoma) | TGI (TK-10 renal) | TGI (SF-268 CNS) | TGI (NCI-H460 lung) | TGI (SK-OV-3 ovarian) | TGI (KM12 colon)

CN(C)c1cc2ccccc2oc1=O
> 100 µM: TGI (CAKI-1 renal) | TGI (PC-3 prostate) | TGI (MDA-MB-231 breast) | TGI (SK-MEL-28 melanoma) | TGI (TK-10 renal) | TGI (SF-268 CNS) | TGI (NCI-H460 lung) | TGI (KM12 colon) | TGI (HCT-116 colon)

Cn1ccnc1CCc1c(Cl)cccc1Cl
> 100 µM: TGI (CAKI-1 renal) | TGI (SK-MEL-28 melanoma) | TGI (TK-10 renal) | TGI (SF-268 CNS) | TGI (NCI-H460 lung) | TGI (SK-OV-3 ovarian) | TGI (KM12 colon) | TGI (HCT-116 colon)

O=C1C2C3C=C4c5ccccc5N(c5ccccc5)C4(C2C(=O)N1c1ccccc1)C1C(=O)N(c2ccccc2)C(=O)C31 (centres undefined)
> 100 µM: TGI (CAKI-1 renal) | TGI (SK-MEL-28 melanoma) | TGI (TK-10 renal) | TGI (SF-268 CNS) | TGI (NCI-H460 lung) | TGI (KM12 colon) | TGI (HCT-116 colon)

COc1cccc(-c2nc3cc(NC(=O)c4ccc(Cl)c(C#N)c4)ccc3o2)c1
> 100 µM: TGI (CAKI-1 renal) | TGI (PC-3 prostate) | TGI (MDA-MB-231 breast)
inactive: GI50 (CAKI-1 renal) 23.3 µM | GI50 (PC-3 prostate) 2.96 µM | GI50 (MDA-MB-231 breast) 3.28 µM | GI50 (TK-10 renal) 3.39 µM | GI50 (NCI-H460 lung) 2.12 µM | GI50 (SK-OV-3 ovarian) 2.57 µM | GI50 (KM12 colon) 1.95 µM | GI50 (HCT-116 colon) 1.8 µM
4.91 µM: TGI (NCI-H460 lung)
5.56 µM: TGI (SK-OV-3 ovarian)
3.47 µM: TGI (HCT-116 colon)
4.48 µM: TGI (KM12 colon)
9 µM: TGI (TK-10 renal)

CC1=C2C(=C[C@@](C)(CO)[C@@H]2OC(=O)N(C)CCN(C)C(=O)OC(C)(C)C)C(=O)[C@](C)(O)C12CC2
18.7 µM: TGI (SF-268 CNS)
23 µM: TGI (SK-OV-3 ovarian)
39.3 µM: TGI (MDA-MB-231 breast)
inactive: GI50 (PC-3 prostate) 7.19 µM | GI50 (MDA-MB-231 breast) 9.64 µM | GI50 (SK-MEL-28 melanoma) 9.83 µM | GI50 (TK-10 renal) 13.6 µM | GI50 (SF-268 CNS) 1.78 µM | GI50 (NCI-H460 lung) 1.45 µM | GI50 (SK-OV-3 ovarian) 6.93 µM | GI50 (KM12 colon) 9.9 µM | GI50 (HCT-116 colon) 2.76 µM
35.2 µM: TGI (TK-10 renal)
28.6 µM: TGI (PC-3 prostate)
> 50 µM: TGI (KM12 colon) | TGI (HCT-116 colon)
26.5 µM: TGI (SK-MEL-28 melanoma)
5.42 µM: TGI (NCI-H460 lung)

Cn1c(=O)c(N=Nc2c(=O)n(C)c(=O)n3c2[nH]c2ccccc23)c2[nH]c3ccccc3n2c1=O
> 100 µM: TGI (CAKI-1 renal) | TGI (SK-MEL-28 melanoma) | TGI (TK-10 renal) | TGI (SF-268 CNS) | TGI (NCI-H460 lung) | TGI (SK-OV-3 ovarian) | TGI (KM12 colon) | TGI (HCT-116 colon)

O=C(N/N=C/c1ccccc1O)N/N=C/c1ccccc1O
> 100 µM: TGI (SK-MEL-28 melanoma) | TGI (TK-10 renal) | TGI (SF-268 CNS) | TGI (NCI-H460 lung) | TGI (SK-OV-3 ovarian) | TGI (HCT-116 colon)

C=C(c1ccccc1)C1(O)CCCCC1N (centres undefined)
> 100 µM: TGI (CAKI-1 renal) | TGI (SK-MEL-28 melanoma) | TGI (TK-10 renal) | TGI (SF-268 CNS) | TGI (NCI-H460 lung) | TGI (SK-OV-3 ovarian) | TGI (KM12 colon) | TGI (HCT-116 colon)

c1cc[c]([Sn][c]2ccccc2)cc1
90.9 µM: TGI (SK-OV-3 ovarian)
20.2 µM: TGI (NCI-H460 lung)
inactive: GI50 (CAKI-1 renal) 24 µM | GI50 (SK-MEL-28 melanoma) 14.5 µM | GI50 (TK-10 renal) 20.1 µM | GI50 (SF-268 CNS) 14.5 µM | GI50 (NCI-H460 lung) 14 µM | GI50 (SK-OV-3 ovarian) 26.4 µM | GI50 (KM12 colon) 13.6 µM | GI50 (HCT-116 colon) 18.2 µM
36 µM: TGI (SK-MEL-28 melanoma)
> 92.3 µM: TGI (CAKI-1 renal)
37.7 µM: TGI (HCT-116 colon)
51.2 µM: TGI (TK-10 renal)
19.2 µM: TGI (KM12 colon)
25 µM: TGI (SF-268 CNS)

O=C(NCCCOC(=O)CCCCCCCCC(=O)OCCCNC(=O)NC(=O)c1c[nH]c(=O)[nH]c1=O)NC(=O)c1c[nH]c(=O)[nH]c1=O
> 100 µM: TGI (CAKI-1 renal) | TGI (SK-MEL-28 melanoma) | TGI (TK-10 renal) | TGI (SF-268 CNS) | TGI (NCI-H460 lung) | TGI (SK-OV-3 ovarian) | TGI (KM12 colon) | TGI (HCT-116 colon)

CCc1c2c(nc3ccc(OCc4ccc(B(O)O)cc4)cc13)-c1cc3c(c(=O)n1C2)COC(=O)[C@]3(O)CC
> 75.5 µM: TGI (PC-3 prostate)
0.347 µM: TGI (SK-OV-3 ovarian)
0.361 µM: TGI (CAKI-1 renal)
inactive: GI50 (MDA-MB-231 breast) 1.37 µM | GI50 (SK-MEL-28 melanoma) 0.477 µM
1.39 µM: TGI (NCI-H460 lung)
17.8 µM: TGI (HCT-116 colon)
> 100 µM: TGI (SK-MEL-28 melanoma)
> 51.9 µM: TGI (KM12 colon)
active: GI50 (CAKI-1 renal) < 0.0143 µM | GI50 (PC-3 prostate) 0.164 µM | GI50 (TK-10 renal) 0.226 µM | GI50 (NCI-H460 lung) < 0.0134 µM | GI50 (SK-OV-3 ovarian) < 0.01 µM | GI50 (KM12 colon) 0.15 µM | GI50 (HCT-116 colon) 0.0118 µM
> 89.5 µM: TGI (MDA-MB-231 breast)

COc1cc(Cl)cc(=O)c(O)c1OC
> 100 µM: TGI (SK-MEL-28 melanoma) | TGI (TK-10 renal) | TGI (SF-268 CNS) | TGI (NCI-H460 lung) | TGI (SK-OV-3 ovarian) | TGI (KM12 colon) | TGI (HCT-116 colon)

Reference: PubChem BioAssay (NCI)
